Results published in patent US20040029927A1, “Use of a compound in providing refreshedness on waking and a method for the treatment of grogginess therewith” (The Boots Company PLC, priority 2001, published 2004).
Structures can show the parent of a compound that is named as a salt.

How the values were obtained:
[1] = system: patients with temporary sleep disturbance; experiment: Clinical trial, Karolinska 9-point sleepiness scale; type: in vivo, human
Description: (§1) The efficacy of triprolidine in enabling a patient to feel refreshed or alert upon waking after taking triprolidine prior to sleeptime was investigated using patients with a history of sleep disorders and utilising triprolidine prepared in accordance with example 3.
(a) Karolinska scale as defined in: Int. J. Neuroscience 52 29-37 (1990); and
(§2) A multiple-dose, placebo-controlled, parallel-group, double-blind, randomised study investigating the effects of 2.5 mg and 5 mg triprolidine in patients with temporary sleep disturbance.
(§3) Male and Female candidates aged 18 years and above were recruited to one of five research centres by means of local advertising. Candidates were screened by means of a telephone questionnaire and selected candidates invited for interview at the research centre. Key inclusion criteria used to select candidates for the study were:
(§4) The candidates came to the research centre on Thursday or Friday and were fitted with a wrist actimeter (AW4 from Cambridge Technology) to establish a baseline measure for SDI and were provided with diary cards to record subjective assessments for the Loughborough Sleep Log and the Karolinska Sleepiness Scale. They returned to the investigational site on the Monday and were issued with the study compositions (2.5 mg triprolidine, 5 mg triprolidine or placebo). The investigator telephoned a central randomisation centre where the subject was randomised to a particular treatment group using a dynamic balanced randomisation algorithm. The subject was given three doses of their allocated study medication and instructed to take a single dose of two tablets 20 minutes before they intended to go to sleep on three consecutive evenings, commencing that evening. The diary cards for the Loughborough Sleep Log and Karolinska Sleepiness Scale were asked to be completed on waking.
A daytime sleepiness assessment was also made 20 minutes, 2 hours and 4 hours after awaking on the Karolinska 9-point scale, i.e. the sleepiness scale.
Karolinska's sleepiness scale is set out below and the results for placebo, 2.5 and 5.0 mg doses of triprolidine are shown in tables 4 and 5. Table 4 relates to the number of individuals experiencing scales 1, 2 or 3 on the Karolinska scale and table 5 relates to the number of individuals experiencing scales 8 and 9.
Karolinska Sleepiness Scale
This will be completed 20 minutes after awakening and then at 2 hours and 4 hours following the first assessment on days 5, 6, 7 and 8.

volunteers = conditions: single doses 10 mg or 20 mg sustained release at bedtime; cited from earlier work
[2] = system: patients with temporary sleep disturbance; experiment: Clinical trial, Loughborough sleep log: feeling of refreshedness 15 minutes after waking (5-point scale); type: in vivo, human
Description: as §1, §2, §3, §4
Candidates were required to complete a questionnaire 15 minutes after awaking on the feeling of refreshedness assessed on a 5-point scale, the Loughborough sleep log.
(§5) In the trial, patients were tested during a seven day period and the results have been analysed for a mean of three days in the middle of this period. The effects of triprolidine at dose level 2.5 mg and 5.0 mg are compared with placebo in table 1.
Generally the treatment groups were well balanced in terms of the demographic data. Unless otherwise mentioned all group data was analysed using ANOVA. In two cases, namely, how the patient felt 15 minutes after awakening in the Loughborough Sleep Log and the Karolinska Sleepiness Scale at 20 minutes, the two variables were analysed using ANCOVA by including the weekend and the mean of Friday/Saturday/Sunday night as a covariate. The method was a closed test procedure (Williams' test). Each of the tests were to be conducted at the 5% level. The analysis of the secondary endpoints was similarly conducted using the Student's t-tests on parameter estimates taken from the analysis of variance model presented above.
(§6) The following is a copy of the “Loughborough sleep log questionnaire” which was used by patients in the study and provided the data for datasets a and b in table 1

[3] = system: patients with temporary sleep disturbance; experiment: Clinical trial, Loughborough sleep log: last night I slept (quality of sleep, 5-point scale); type: in vivo, human
Description: as §1, §2, §3, §4, §5, §6

## Cc1ccc(/C(=C\CN2CCCC2)c2ccccn2)cc1 [TRP.HCl.H2O]
[1]; 2.5 mg
  percentage of people feeling alert, very alert or extremely alert on waking versus placebo: greater percentage
  percentage of people feeling sleepy, some effort, or very sleepy, great effort to keep awake, on waking versus placebo: lower percentage
  residual hangover effects/morning grogginess: no evidence of residual hangover effects/morning grogginess
[1]; 2.5 mg, Monday
  I feel (i) sleepy, some effort or (ii) very sleepy, a great effort to keep awake (Karolinska scales 8 and 9): 11.5%
  I feel extremely alert, very alert or alert (Karolinska scales 1, 2 or 3): 21.3%
[1]; 2.5 mg, Tuesday
  I feel (i) sleepy, some effort or (ii) very sleepy, a great effort to keep awake (Karolinska scales 8 and 9): 13.1%
  I feel extremely alert, very alert or alert (Karolinska scales 1, 2 or 3): 21.3%
[1]; 2.5 mg, Wednesday
  I feel (i) sleepy, some effort or (ii) very sleepy, a great effort to keep awake (Karolinska scales 8 and 9): 6.5%
  I feel extremely alert, very alert or alert (Karolinska scales 1, 2 or 3): 21.0%
[1]; 5 mg, Monday
  I feel (i) sleepy, some effort or (ii) very sleepy, a great effort to keep awake (Karolinska scales 8 and 9): 12.5%
  I feel extremely alert, very alert or alert (Karolinska scales 1, 2 or 3): 6.3%
[1]; 5 mg, Tuesday
  I feel (i) sleepy, some effort or (ii) very sleepy, a great effort to keep awake (Karolinska scales 8 and 9): 17.5%
  I feel extremely alert, very alert or alert (Karolinska scales 1, 2 or 3): 9.5%
[1]; 5 mg, Wednesday
  I feel (i) sleepy, some effort or (ii) very sleepy, a great effort to keep awake (Karolinska scales 8 and 9): 12.7%
  I feel extremely alert, very alert or alert (Karolinska scales 1, 2 or 3): 17.5%
[1]; either dose (2.5 mg or 5 mg)
  daytime sleepiness: lack of daytime sleepiness
volunteers
  sleep onset latency (time required to fall asleep) compared with placebo: did not significantly alter
  total sleep time compared with placebo: no effect
  wakefulness during sleep compared with placebo: no effect
[2]; 2.5 mg, Mean of 3
  15 mins after awaking (1- very refreshed 5- very tired), Mean: 3.24
[2]; 2.5 mg, Mon
  15 mins after awaking (1- very refreshed 5- very tired), Mean: 3.33
[2]; 2.5 mg, Monday
  Awoke Very Refreshed or Refreshed Responses: 23%
[2]; 2.5 mg, Tues
  15 mins after awaking (1- very refreshed 5- very tired), Mean: 3.23
[2]; 2.5 mg, Tuesday
  Awoke Very Refreshed or Refreshed Responses: 23%
[2]; 2.5 mg, Wed
  15 mins after awaking (1- very refreshed 5- very tired), Mean: 3.18
[2]; 2.5 mg, Wednesday
  Awoke Very Refreshed or Refreshed Responses: 25.8%
[2]; 2.5 mg, p<0.05
  feeling of refreshedness 15 minutes after waking versus placebo: more refreshed than those on placebo
[2]; 5 mg, Mean of 3
  15 mins after awaking (1- very refreshed 5- very tired), Mean: 3.59
[2]; 5 mg, Mon
  15 mins after awaking (1- very refreshed 5- very tired), Mean: 3.72
[2]; 5 mg, Monday
  Awoke Very Refreshed or Refreshed Responses: 11.5%
[2]; 5 mg, Tues
  15 mins after awaking (1- very refreshed 5- very tired), Mean: 3.56
[2]; 5 mg, Tuesday
  Awoke Very Refreshed or Refreshed Responses: 8.2%
[2]; 5 mg, Wed
  15 mins after awaking (1- very refreshed 5- very tired), Mean: 3.54
[2]; 5 mg, Wednesday
  Awoke Very Refreshed or Refreshed Responses: 14.8%
[3]; 2.5 mg, Mean of 3
  last night I slept (1- extremely well, 5- extremely badly), Mean: 2.73
[3]; 2.5 mg, Mon
  last night I slept (1- extremely well, 5- extremely badly), Mean: 2.67
[3]; 2.5 mg, Monday
  Last Night I Slept Extremely Well or Very Well Responses: 41.4%
[3]; 2.5 mg, Tues
  last night I slept (1- extremely well, 5- extremely badly), Mean: 2.71
[3]; 2.5 mg, Tuesday
  Last Night I Slept Extremely Well or Very Well Responses: 41.8%
[3]; 2.5 mg, Wed
  last night I slept (1- extremely well, 5- extremely badly), Mean: 2.81
[3]; 2.5 mg, Wednesday
  Last Night I Slept Extremely Well or Very Well Responses: 37.9%
[3]; 5 mg, Mean of 3
  last night I slept (1- extremely well, 5- extremely badly), Mean: 2.69
[3]; 5 mg, Mon
  last night I slept (1- extremely well, 5- extremely badly), Mean: 2.49
[3]; 5 mg, Monday
  Last Night I Slept Extremely Well or Very Well Responses: 50.9%
[3]; 5 mg, Tues
  last night I slept (1- extremely well, 5- extremely badly), Mean: 2.93
[3]; 5 mg, Tuesday
  Last Night I Slept Extremely Well or Very Well Responses: 28.8%
[3]; 5 mg, Wed
  last night I slept (1- extremely well, 5- extremely badly), Mean: 2.64
[3]; 5 mg, Wednesday
  Last Night I Slept Extremely Well or Very Well Responses: 39.3%
